Our source for the inhibition and IC50 values is the Kinase Knowledgebase extract (Sharma et al. 2016).

For orientation: inhibition means the drop in the measured response relative to a control, in per cent. Lower therefore signals little suppression. Usually IC50 stands for the concentration that gives 50% inhibition. A low value points to inhibition by little substance.

This assay addresses MAPK14 (human) (UniProt Q16539). The assay is described as follows: Inhibition of LPS Stimulated TNF Production by U937 Cells. To be noted: for inhibition: concentration not given here.

Molecules are shown by their SMILES.

Chain of MAPK14 (human) (Q16539 whole entry, looked up): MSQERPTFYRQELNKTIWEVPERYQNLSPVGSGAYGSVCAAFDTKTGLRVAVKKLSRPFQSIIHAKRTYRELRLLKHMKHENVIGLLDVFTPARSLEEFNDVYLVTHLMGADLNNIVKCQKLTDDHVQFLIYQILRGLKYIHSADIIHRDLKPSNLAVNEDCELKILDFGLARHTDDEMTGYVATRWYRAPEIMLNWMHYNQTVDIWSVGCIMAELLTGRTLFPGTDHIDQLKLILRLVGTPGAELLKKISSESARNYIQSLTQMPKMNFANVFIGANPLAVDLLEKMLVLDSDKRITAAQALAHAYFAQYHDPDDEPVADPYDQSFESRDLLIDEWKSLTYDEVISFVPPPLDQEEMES

In turn, `CCCNC(=O)Cn1nc(-c2ccc(F)cc2)c(-c2ccncc2)c1C` gave an inhibition of 31%.
Regarding `CN(C)c1cccc2c(S(=O)(=O)NCCc3[nH]nc(-c4ccc(F)cc4)c3-c3ccncc3)cccc12`, the inhibition is 28%.
The same measure, in the same setting: with `COc1cc(C(=O)NCc2[nH]nc(-c3ccc(F)cc3)c2-c2ccncc2)cc(OC)c1OC` the figure was 21%; with `CCCCOc1ccc(S(=O)(=O)N[C@@H](C)c2[nH]nc(-c3ccc(F)cc3)c2-c2ccncc2)cc1`, 80%.
On to `O=[N+]([O-])c1cccc(S(=O)(=O)NCc2[nH]nc(-c3ccc(F)cc3)c2-c2ccncc2)c1`, for which the IC50 came to 3920 nM.
`COc1ccc(NC(=O)NCc2[nH]nc(-c3ccc(F)cc3)c2-c2ccncc2)cc1` returned an inhibition of 31%.
The same measure, in the same setting: with `O=S(=O)(NCc1[nH]nc(-c2ccc(F)cc2)c1-c1ccncc1)c1cc(S(=O)(=O)c2ccccc2)cs1` the figure was 58%.
Consider `Fc1ccc(-c2[nH]nc(Nc3ccccc3)c2-c2ccncc2)cc1`, for which the IC50 came to 1090 nM.
On the same count and under the same terms, as for `Cc1ccc(C(=O)N[C@H](Cc2ccccc2)c2[nH]nc(-c3ccc(F)cc3)c2-c2ccncc2)cc1`, the figure is over 1000 nM.
The molecule `C[C@H](NS(=O)(=O)Cc1ccccc1[N+](=O)[O-])c1[nH]nc(-c2ccc(F)cc2)c1-c1ccncc1` yielded an inhibition of 88%.
On the same count and under the same terms, as for `Cc1ccc(S(C)(=O)=O)cc1S(=O)(=O)NCc1[nH]nc(-c2ccc(F)cc2)c1-c1ccncc1`, the figure is 23%.
`C[C@@H](NC(=O)NCc1ccccc1)c1[nH]nc(-c2ccc(F)cc2)c1-c1ccncc1` yielded an IC50 of 2420 nM.
`O=C(NCCc1[nH]nc(-c2ccc(F)cc2)c1-c1ccncc1)c1ccc(Cl)cc1` yielded an inhibition of 29%.
For `O=C(NCc1[nH]nc(-c2ccc(F)cc2)c1-c1ccncc1)c1ccncc1`, the inhibition turned out to be 3%.
`CCCCOc1ccc(S(=O)(=O)NCc2[nH]nc(-c3ccc(F)cc3)c2-c2ccncc2)cc1` came in with an inhibition of 31%.
Take `C[C@@H](NC(=O)c1cc(C(F)(F)F)ccc1F)c1[nH]nc(-c2ccc(F)cc2)c1-c1ccncc1`: the inhibition was determined as 43%.
`CN(C)CCn1cc(-c2ccncc2)c(-c2ccc(F)cc2)n1`: the IC50 turned out to be 254 nM.
In turn, `Cc1c(C)c(S(=O)(=O)NCc2[nH]nc(-c3ccc(F)cc3)c2-c2ccncc2)c(C)c2c1OC(C)(C)CC2` showed an inhibition of 11%.
In turn, `Cc1cccc(Cl)c1S(=O)(=O)N[C@H](C)c1[nH]nc(-c2ccc(F)cc2)c1-c1ccncc1` had an inhibition of 77%.
Same read-out and setting: as for `CC(C)c1ccc(S(=O)(=O)N[C@@H](C)c2[nH]nc(-c3ccc(F)cc3)c2-c2ccncc2)cc1`, the figure is 76%; as for `C[C@H](NC(=O)c1cc(F)c(F)cc1F)c1[nH]nc(-c2ccc(F)cc2)c1-c1ccncc1`, 43%; as for `C[C@@H](NC(=O)c1ccno1)c1[nH]nc(-c2ccc(F)cc2)c1-c1ccncc1`, 27%.
As for `CCCOC(=O)N[C@H](C)c1[nH]nc(-c2ccc(F)cc2)c1-c1ccncc1`, the inhibition is 54%.
The same measure, in the same setting: with `NC(=O)N[C@@H](Cc1ccccc1)c1[nH]nc(-c2ccc(F)cc2)c1-c1ccncc1` the figure was 17%.
Take `C[C@H](NS(=O)(=O)c1ccc(Cl)cc1)c1[nH]nc(-c2ccc(F)cc2)c1-c1ccncc1`: the inhibition came out at 88%.
With `C#CCn1ncc(-c2ccncc2)c1-c1ccc(F)cc1`, the IC50 is over 10000 nM.
Molecule `C[C@@H](NC(=O)C1CCCC1)c1[nH]nc(-c2ccc(F)cc2)c1-c1ccncc1` gave an inhibition of 12%.
As for `COc1ccc(S(=O)(=O)N[C@@H](C)c2[nH]nc(-c3ccc(F)cc3)c2-c2ccncc2)cc1OC`, the inhibition was determined as 66%.
Take `COc1ccc(CNc2cc(-c3c[nH]nc3-c3ccc(Cl)cc3)ccn2)cc1`: the IC50 worked out at 495 nM.
Molecule `COc1ccc(S(=O)(=O)N[C@H](C)c2[nH]nc(-c3ccc(F)cc3)c2-c2ccncc2)cc1OC` had an inhibition of 25%.
As for `Cc1c(-c2ccncc2)c(-c2ccc(F)cc2)nn1CC(=O)NCCc1ccc(Oc2ccccc2)cc1`, the IC50 amounted to 780 nM.
Consider `CCCOC(=O)N[C@@H](C)c1[nH]nc(-c2ccc(F)cc2)c1-c1ccncc1`, for which the inhibition turned out to be 61%.
Turning to `Cc1ccccc1C(=O)N[C@H](C)c1[nH]nc(-c2ccc(F)cc2)c1-c1ccncc1`, the inhibition turned out to be 42%.
Turning to `C#CCn1cc(-c2ccncc2)c(-c2ccc(F)cc2)n1`, the IC50 stood at 500 nM.
`O=C(NCc1[nH]nc(-c2ccc(F)cc2)c1-c1ccncc1)Nc1ccc(OC(F)(F)F)cc1` had an inhibition of 11%.
With `CN(C)CCn1cc(-c2ccnc(F)c2)c(-c2ccc(F)cc2)n1`, the IC50 came out at 4210 nM.
Turning to `C[C@@H](NC(=O)c1cc2ccccc2s1)c1[nH]nc(-c2ccc(F)cc2)c1-c1ccncc1`, the inhibition stood at 16%.
`Cc1cccc(C)c1NC(=O)N[C@H](C)c1[nH]nc(-c2ccc(F)cc2)c1-c1ccncc1` gave an inhibition of 50%.
Molecule `O=C(NCc1[nH]nc(-c2ccc(F)cc2)c1-c1ccncc1)[C@@H]1C[C@@H]1c1ccccc1` had an inhibition of 28%.
Regarding `CC(=O)OC(C)(C)C(=O)N[C@H](Cc1ccccc1)c1[nH]nc(-c2ccc(F)cc2)c1-c1ccncc1`, the IC50 was over 1000 nM.
For `CN(C)c1n[nH]c(-c2ccc(F)cc2)c1-c1ccncc1`, the IC50 came to 484 nM.
`Cc1ccccc1S(=O)(=O)NCc1[nH]nc(-c2ccc(F)cc2)c1-c1ccncc1` showed an inhibition of 24%.
With `CC(C)=CC(=O)NCc1[nH]nc(-c2ccc(F)cc2)c1-c1ccncc1`, the IC50 came out at 11000 nM.
`C[C@H](NS(=O)(=O)c1cc(Cl)c(Cl)s1)c1[nH]nc(-c2ccc(F)cc2)c1-c1ccncc1` gave an inhibition of 79%.
`COc1ccc(CC(=O)NCc2[nH]nc(-c3ccc(F)cc3)c2-c2ccncc2)cc1OC` registered a half-inhibitory concentration (IC50) of 10000 nM.
Take `C[C@H](NC(=O)c1ccccc1Br)c1[nH]nc(-c2ccc(F)cc2)c1-c1ccncc1`: the inhibition stood at 39%.
`COCC(=O)N[C@H](C)c1[nH]nc(-c2ccc(F)cc2)c1-c1ccncc1` returned an inhibition of 46%.
On the same count and under the same terms, as for `Cc1noc(C)c1S(=O)(=O)NCCCc1[nH]nc(-c2ccc(F)cc2)c1-c1ccncc1`, the figure is 85%.
`C[C@H](NC(=O)N(C)c1ccccc1)c1[nH]nc(-c2ccc(F)cc2)c1-c1ccncc1` registered an inhibition of 51%.
For `Cc1ccc(S(=O)(=O)N[C@H](C)c2[nH]nc(-c3ccc(F)cc3)c2-c2ccncc2)cc1`, the inhibition turned out to be 39%.
The same measure, in the same setting: with `C[C@@H](NC(=O)c1ccc(F)c(F)c1)c1[nH]nc(-c2ccc(F)cc2)c1-c1ccncc1` the figure was 52%.
With `C[C@H](NS(C)(=O)=O)c1[nH]nc(-c2ccc(F)cc2)c1-c1ccncc1`, the IC50 stood at 1700 nM.
Turning to `O=C(NCc1[nH]nc(-c2ccc(F)cc2)c1-c1ccncc1)C1CCC1`, the inhibition stood at 28%.
With `OCCn1cc(-c2ccnc(F)c2)c(-c2ccc(F)cc2)n1`, the IC50 was found to be 2670 nM.
As for `O=S(=O)(NCc1[nH]nc(-c2ccc(F)cc2)c1-c1ccncc1)c1cccc2cnccc12`, the inhibition was found to be 24%.
`CN(C(=O)N[C@@H](Cc1ccccc1)c1[nH]nc(-c2ccc(F)cc2)c1-c1ccncc1)c1ccccc1` displayed an IC50 of under 1000 nM.
Consider `O=C(NCc1[nH]nc(-c2ccc(F)cc2)c1-c1ccncc1)c1ccccn1`, for which the inhibition was found to be 2%.
Take `O=C(c1ccc(Cl)cc1)N1CCC(c2[nH]nc(-c3ccc(F)cc3)c2-c2ccncc2)CC1`: the IC50 is 570 nM.
`CC(C)C(=O)N[C@H](C)c1[nH]nc(-c2ccc(F)cc2)c1-c1ccncc1` had an inhibition of 40%.
The same measure, in the same setting: with `CNC(=O)CC[C@H](NC(=O)c1ccncc1)c1[nH]nc(-c2ccc(F)cc2)c1-c1ccncc1` the figure was 8%.
`Cn1cc(-c2ccncc2)c(-c2ccc(C(F)(F)F)cc2)n1` returned an IC50 of 1200 nM.
Consider `N#Cc1ccc(S(=O)(=O)N2CCC(c3[nH]nc(-c4ccc(F)cc4)c3-c3ccncc3)CC2)cc1`, for which the inhibition turned out to be 24%.
`CC[C@H](C)CNc1cc(-c2c[nH]nc2-c2ccc(Cl)cc2)ccn1` showed an IC50 of 33.7 nM.
As for `O=C(NCc1[nH]nc(-c2ccc(F)cc2)c1-c1ccncc1)Nc1ccccc1OC(F)(F)F`, the inhibition was 25%.
On the same count and under the same terms, with `Cc1c(Cl)cccc1S(=O)(=O)NCc1[nH]nc(-c2ccc(F)cc2)c1-c1ccncc1` the figure was 15%; with `C[C@H](NC(=O)N[C@@H](C)c1[nH]nc(-c2ccc(F)cc2)c1-c1ccncc1)c1ccccc1`, 29%.
The molecule `O=C(NCCc1[nH]nc(-c2ccc(F)cc2)c1-c1ccncc1)c1cccc(C(F)(F)F)c1F` gave an IC50 of over 1000 nM.
As to `CNC(=O)N[C@@H](Cc1ccccc1)c1[nH]nc(-c2ccc(F)cc2)c1-c1ccncc1`, the inhibition turned out to be 11%.
For the molecule `C[C@@H](NS(=O)(=O)c1ccc(F)cc1Cl)c1[nH]nc(-c2ccc(F)cc2)c1-c1ccncc1`, the inhibition amounted to 81%.
Regarding `COc1ccc(OC)c(S(=O)(=O)NCCc2[nH]nc(-c3ccc(F)cc3)c2-c2ccncc2)c1`, the inhibition was found to be 29%.
Still for that read-out and setting: with `O=S(=O)(c1ccc(C(F)(F)F)cc1)N1CCC(c2[nH]nc(-c3ccc(F)cc3)c2-c2ccncc2)CC1` the figure was 31%.
Molecule `O=S(=O)(NCCCc1[nH]nc(-c2ccc(F)cc2)c1-c1ccncc1)c1cccc(Cl)c1Cl` returned an inhibition of 18%.
Molecule `CS(=O)(=O)c1ccccc1S(=O)(=O)NCc1[nH]nc(-c2ccc(F)cc2)c1-c1ccncc1` yielded an inhibition of 23%.
Still for that read-out and setting: as for `O=S(=O)(NCc1[nH]nc(-c2ccc(F)cc2)c1-c1ccncc1)c1cccc(Cl)c1Cl`, the figure is 30%.
Regarding `C[C@H](NC(=O)[C@@H]1CCCN1)c1[nH]nc(-c2ccc(F)cc2)c1-c1ccncc1`, the inhibition was 47%.
Molecule `CCCNC(=O)N[C@@H](C)c1[nH]nc(-c2ccc(F)cc2)c1-c1ccncc1` displayed an IC50 of 38000 nM.
Still for that read-out and setting: with `Fc1ccc(-c2n[nH]cc2-c2ccnc(NC3CCN(Cc4ccccc4)CC3)c2)cc1` the figure was 543 nM.
In turn, `CC(=O)Nc1ccc(S(=O)(=O)NCCc2[nH]nc(-c3ccc(F)cc3)c2-c2ccncc2)cc1` showed an inhibition of 24%.
For the molecule `C[C@@H](NS(=O)(=O)c1c(Cl)cccc1Cl)c1[nH]nc(-c2ccc(F)cc2)c1-c1ccncc1`, the inhibition was found to be 75%.
`O=C(NCc1[nH]nc(-c2ccc(F)cc2)c1-c1ccncc1)c1ccc(F)c(F)c1`: the IC50 worked out at 1010 nM and the inhibition came out at 26%.
Take `C[C@@H](NC(=O)c1c(F)ccc(F)c1F)c1[nH]nc(-c2ccc(F)cc2)c1-c1ccncc1`: the inhibition is 73%.
